Measured values taken from US6828139B2, “Production of replicative hepatitis C virus” (priority 2000, dated 2004).
Counter-ions that a name gives are not always drawn.

Tested on: HCV (−) RNA synthesis
Assay: HCV (−) strand RNA synthesis in the inducible HCV replication system, RNase protection assay
Type: cell-based, hepatitis C virus (genotype 1a, strain H77) in CV-1 cells
Set-up: inhibitory effect on HCV (−) RNA synthesis: dose or concentration left out as unconfirmed
Details: for results on HCV (−) RNA synthesis with changed time of addition: drug given 0 and 12 hours before vTF7-3 infection, compared with 20 hours

Structure (SMILES)	results on HCV (−) RNA synthesis with changed time of addition	inhibitory effect on HCV (−) RNA synthesis (ribavirin, added 20 hours prior to vTF7-3)	activity against HCV (−) strand synthesis (amantadine 1-100 μg/well, added 20 hours prior to vTF7-3 infection)
NC(=O)c1ncn([C@@H]2O[C@H](CO)[C@@H](O)[C@H]2O)n1 [ribavirin]	unchanged	No inhibitory effect	–
NC12CC3CC(CC(C3)C1)C2 [amantadine, Amantadine-HCl]	unchanged	–	no activity
